Structures can show the parent of a compound that is named as a salt. Where two headings read alike, the source gives them in different places.
Key:
[1] = MDR1 LLC-PK1 and BCRP MDCKII permeability assay: permeability coefficient (Papp); format: in vitro ADME
Excerpt: (§1) Final organic concentration in the assay was 1%.

[2] = PK (free brain-to-free plasma ratio) (mouse); format: in vivo; conditions: male CD-1 mice, oral gavage 10 mg/kg, unbound brain-to-unbound plasma, read-out: B/P ratio (free)
Method: The ability of representative compounds to penetrate the BBB in mice was determined by evaluating the unbound brain-to-unbound plasma (also referred to as free brain-to-free plasma) concentration ratio in male CD-1 mice.
Brain compound levels were generated from oral mouse PK dosing with typical sampling times of 2, 4, 8, 12 and 24 hours post oral gavage dosing at 10 mg/kg. Brain samples were stored at −20±5° C. prior to analysis. Concentrations of test compound in mouse brain homogenate were determined by liquid chromatography tandem mass spectrometry (LC-MS/MS) following protein precipitation with acetonitrile. A 12-point calibration curve, ranging from 0.5 to 10,000 ng/mL, was prepared in duplicate. A solution of 400 μg/mL of test compound in dimethyl sulfoxide (DMSO) was serially diluted (3-fold) in 100% DMSO, and then 2.5 μL of each standard solution was added to 100 μL of naïve male CD-1 mice brain homogenate. To mimic the extraction in the standard curve, 2.5 μL of DMSO was added to all test samples. Both calibration and test brain homogenate samples were spiked with 10 μL of an IS (1 μg/mL of a structural analog). Brain homogenate was generated by adding 0.75 mL of 4:1 water:MeOH to each brain sample followed by homogenization for 1 minute with bead beater tubes a 6 m/s using an MP Fast Prep-24®. Proteins were precipitated from 100 μL of brain homogenate sample by the addition of 300 μL of acetonitrile. Samples were vortex-mixed for 5 minutes and spun in an Allegra X-12R centrifuge (Beckman Coulter, Fullerton, CA; SX4750A rotor) for 15 min at approximately 1,500×g at 4° C. A 100 μL aliquot of each supernatant was transferred via a 550 μL Personal Pipettor (Apricot Designs, Monrovia, CA) to 96-well plates and diluted 1:1 with HPLC grade water. The resulting plates were sealed with aluminum for LC-MS/MS analysis.
Brain-to-plasma ratios were calculated using the concentration of compound measured in the brain divided by the concentration of compound measured in the plasma. Brain-to-plasma ratios were always generated from a single animal and time point. Free brain-to-free plasma ratios were calculated by multiplying the brain-to-plasma ratio by the in vitro brain homogenate free fraction divided by the in vitro plasma free fraction using the following equation: (B/P)*(Bfu/Pfu). Table C provides the free brain-to-free plasma ratios of compounds disclosed herein.

[3] = biological target: full-length FLAG-tagged B-Raf(V600E) (Homo sapiens (Human), UniProt P15056, V600E); test: BRAF V600E enzyme assay (TR-FRET competitive displacement); format: binding
Sequence of full-length FLAG-tagged B-Raf(V600E) (P15056 whole entry V600E): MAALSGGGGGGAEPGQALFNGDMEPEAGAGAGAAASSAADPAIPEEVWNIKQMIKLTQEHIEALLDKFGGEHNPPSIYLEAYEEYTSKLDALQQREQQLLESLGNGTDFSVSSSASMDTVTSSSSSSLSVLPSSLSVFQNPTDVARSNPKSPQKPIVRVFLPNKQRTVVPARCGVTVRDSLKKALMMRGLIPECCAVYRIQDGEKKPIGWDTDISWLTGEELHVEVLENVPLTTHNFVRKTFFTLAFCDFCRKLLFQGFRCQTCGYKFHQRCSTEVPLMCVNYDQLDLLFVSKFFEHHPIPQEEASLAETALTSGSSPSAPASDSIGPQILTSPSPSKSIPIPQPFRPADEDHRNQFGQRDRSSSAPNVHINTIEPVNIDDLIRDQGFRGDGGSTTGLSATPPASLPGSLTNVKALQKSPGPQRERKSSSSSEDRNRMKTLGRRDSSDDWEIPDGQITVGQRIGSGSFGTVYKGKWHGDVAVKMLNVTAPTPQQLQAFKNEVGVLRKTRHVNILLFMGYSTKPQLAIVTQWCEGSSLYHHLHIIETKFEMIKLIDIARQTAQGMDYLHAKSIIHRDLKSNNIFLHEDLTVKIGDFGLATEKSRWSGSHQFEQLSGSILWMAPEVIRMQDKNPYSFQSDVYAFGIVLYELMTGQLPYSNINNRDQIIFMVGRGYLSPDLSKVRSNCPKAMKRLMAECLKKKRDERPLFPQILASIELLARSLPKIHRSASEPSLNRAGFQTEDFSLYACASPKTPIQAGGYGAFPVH
Summary of the method: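 Displacement of 50 nM Tracer 1710 from 5 nM full-length N-terminally FLAG-tagged B-Raf(V600E), detected by TR-FRET with 0.5 nM Eu anti-FLAG antibody, in 25 mM HEPES pH 7.4, 10 mM MgCl2, 2% DMSO; 60 min at ~22 °C. Compounds 11-point, 3-fold from 10 μM; IC50 from 4-parameter fit at 50 POC.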

A375 cells = test: Cellular phospho-ERK inhibition assay in A375 cells; format: cell-based; conditions: Homo sapiens, A-375, A375 cells (head prints A357), 2 hours treatment, read-out: A357 cell IC50
Summary of the method: (§2)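 A375 (DMEM) or H1755 (RPMI) cells in 10% FBS treated 2 h at 37 °C with 9-point series, 66 pM–10 μM, 0.25% DMSO. Phospho-ERK1/2 (Thr202/Tyr204) measured by In Cell Western, normalised to GAPDH and to DMSO and 10 μM binimetinib controls; IC50 by 4-parameter fit.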

H1755 cells = test: Cellular phospho-ERK inhibition assay in H1755 cells; format: cell-based; conditions: Homo sapiens, NCI-H1755, 2 hours treatment, read-out: H1755 Cell IC50
Summary of the method: as §2

BCRP = BCRP (Homo sapiens (Human), UniProt Q9UNQ0); test: BCRP MDCKII permeability assay: efflux ratio; format: in vitro ADME; conditions: dog
Sequence of BCRP (Q9UNQ0 whole entry): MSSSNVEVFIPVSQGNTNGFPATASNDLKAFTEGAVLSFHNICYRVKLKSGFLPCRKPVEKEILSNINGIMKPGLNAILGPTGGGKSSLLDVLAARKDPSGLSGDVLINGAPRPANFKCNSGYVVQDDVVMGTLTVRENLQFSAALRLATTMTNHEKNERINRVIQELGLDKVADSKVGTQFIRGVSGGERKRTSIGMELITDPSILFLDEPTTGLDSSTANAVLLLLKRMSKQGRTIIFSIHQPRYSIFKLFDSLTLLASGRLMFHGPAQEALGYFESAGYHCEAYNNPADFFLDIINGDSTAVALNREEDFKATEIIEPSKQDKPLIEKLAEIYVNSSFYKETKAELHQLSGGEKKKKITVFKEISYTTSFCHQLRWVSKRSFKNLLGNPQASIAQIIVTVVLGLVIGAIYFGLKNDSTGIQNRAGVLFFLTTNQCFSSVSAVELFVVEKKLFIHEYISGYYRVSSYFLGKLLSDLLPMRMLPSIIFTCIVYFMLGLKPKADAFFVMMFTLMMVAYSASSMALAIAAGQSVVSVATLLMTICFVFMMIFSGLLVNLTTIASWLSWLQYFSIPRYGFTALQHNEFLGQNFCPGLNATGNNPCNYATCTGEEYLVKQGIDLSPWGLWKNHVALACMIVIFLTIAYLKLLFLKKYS

P-gp (MDR1) = P-gp (MDR1) (Homo sapiens (Human), UniProt P08183); test: MDR1 LLC-PK1 permeability assay: efflux ratio; format: in vitro ADME; conditions: pig
Sequence of P-gp (MDR1) (P08183 whole entry, species assumed): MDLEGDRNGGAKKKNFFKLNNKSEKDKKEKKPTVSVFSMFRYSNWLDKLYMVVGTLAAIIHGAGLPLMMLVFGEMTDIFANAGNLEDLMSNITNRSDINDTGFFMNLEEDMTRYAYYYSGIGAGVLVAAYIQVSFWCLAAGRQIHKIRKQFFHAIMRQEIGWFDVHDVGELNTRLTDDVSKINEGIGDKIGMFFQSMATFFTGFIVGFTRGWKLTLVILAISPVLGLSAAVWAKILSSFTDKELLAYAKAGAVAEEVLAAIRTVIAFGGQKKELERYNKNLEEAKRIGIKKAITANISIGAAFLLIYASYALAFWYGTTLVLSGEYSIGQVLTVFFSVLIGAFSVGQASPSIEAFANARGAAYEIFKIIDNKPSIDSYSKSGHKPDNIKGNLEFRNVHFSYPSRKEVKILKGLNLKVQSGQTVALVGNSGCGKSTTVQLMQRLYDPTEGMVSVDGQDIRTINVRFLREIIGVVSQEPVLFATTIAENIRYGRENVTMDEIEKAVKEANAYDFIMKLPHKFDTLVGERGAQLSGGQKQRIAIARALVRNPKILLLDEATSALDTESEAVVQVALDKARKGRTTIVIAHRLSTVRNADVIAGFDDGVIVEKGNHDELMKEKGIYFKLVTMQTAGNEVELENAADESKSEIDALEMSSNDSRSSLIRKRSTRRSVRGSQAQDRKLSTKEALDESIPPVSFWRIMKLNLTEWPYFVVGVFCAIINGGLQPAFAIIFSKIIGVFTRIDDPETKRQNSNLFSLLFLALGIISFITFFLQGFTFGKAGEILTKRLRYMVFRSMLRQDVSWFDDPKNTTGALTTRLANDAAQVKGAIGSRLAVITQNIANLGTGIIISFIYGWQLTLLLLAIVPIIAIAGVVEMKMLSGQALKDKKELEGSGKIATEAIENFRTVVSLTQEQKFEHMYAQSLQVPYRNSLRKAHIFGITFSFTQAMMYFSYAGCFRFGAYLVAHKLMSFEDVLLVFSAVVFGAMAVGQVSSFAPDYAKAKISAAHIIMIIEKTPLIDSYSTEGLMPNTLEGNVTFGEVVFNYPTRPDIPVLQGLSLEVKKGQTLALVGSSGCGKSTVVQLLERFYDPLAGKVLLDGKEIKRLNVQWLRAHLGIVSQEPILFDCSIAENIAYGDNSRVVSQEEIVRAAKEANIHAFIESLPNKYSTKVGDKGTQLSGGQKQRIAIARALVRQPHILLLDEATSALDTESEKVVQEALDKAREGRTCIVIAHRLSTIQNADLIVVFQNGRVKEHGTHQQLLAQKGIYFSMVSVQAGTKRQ
Excerpt: as §1

[4] = averaged IC50, TR-FRET tracer displacement, 60 min

Row | SMILES | Papp at 2 h, 1 µM [1] | Kp [2] | IC50 [3, 4] | IC50 (A375 cells) | IC50 (H1755 cells) | efflux ratio at 2 h, 1 µM (BCRP) | efflux ratio at 2 h, 1 µM (P-gp (MDR1)) | IC50 [3]
1 | Cn1cnc2ccc(Nc3c(F)ccc(NS(=O)(=O)N4CC[C@@H](OC(F)F)C4)c3Cl)c(Cl)c2c1=O [Example 29, (R)-N-(2-chloro-3-((5-chloro-3-methyl-4-oxo-3,4-dihydroquinazolin-6-yl)amino)-4-fluorophenyl)-3-(difluoromethoxy)pyrrolidine-1-sulfonamide] | 280 nm/s | 0.41 to 0.55 | 0.003 µM | 0.009 µM | 0.035 µM | 2.9 | 1.7 | 
2 | COCC1CN(S(=O)(=O)Nc2ccc(F)c(Nc3ccc4ncn(C)c(=O)c4c3C)c2Cl)C1 [Example 131, N-(2-chloro-3-((3,5-dimethyl-4-oxo-3,4-dihydroquinazolin-6-yl)amino)-4-fluorophenyl)-3-(methoxymethyl)azetidine-1-sulfonamide] | 550 nm/s | 0.3 to 0.5 | 0.016 µM | 0.013 µM | 0.038 µM | 1.7 | 2.1 | 
3 | Cn1cnc2ccc(Oc3c(F)ccc(NS(=O)(=O)N4CC[C@@H](F)C4)c3Cl)c(Cl)c2c1=O [Example 38, (R)-N-(2-chloro-3-((5-chloro-3-methyl-4-oxo-3,4-dihydroquinazolin-6-yl)oxy)-4-fluorophenyl)-3-fluoropyrrolidine-1-sulfonamide] | 330 nm/s | 0.2 to 0.24 | 0.002 µM | 0.005 µM | 0.027 µM | 1.8 | 1.2 | 
4 | Cc1c(Oc2c(F)ccc(NS(=O)(=O)N3CC[C@@H](F)C3)c2Cl)ccc2ncn(C)c(=O)c12 [Example 70, (R)-N-(2-chloro-3-((3,5-dimethyl-4-oxo-3,4-dihydroquinazolin-6-yl)oxy)-4-fluorophenyl)-3-fluoropyrrolidine-1-sulfonamide] | 250 nm/s | 0.17 to 0.36 |  | 0.014 µM | 0.043 µM | 1 | 1.8 | 0.008 µM

Other lines, results leading:

Row | Papp at 2 h, 1 µM [1] | Kp [2] | IC50 [3, 4] | IC50 (A375 cells) | IC50 (H1755 cells) | efflux ratio at 2 h, 1 µM (BCRP) | efflux ratio at 2 h, 1 µM (P-gp (MDR1)) | IC50 [3] | SMILES
5 | 370 nm/s | 0.18 to 0.22 | 0.012 µM | 0.009 µM | 0.037 µM | 5.3 | 1.6 |  | COC1CN(S(=O)(=O)Nc2ccc(F)c(Nc3ccc4ncn(C)c(=O)c4c3Cl)c2Cl)C1 [Example 129, N-(2-chloro-3-((5-chloro-3-methyl-4-oxo-3,4-dihydroquinazolin-6-yl)amino)-4-fluorophenyl)-3-methoxyazetidine-1-sulfonamide]
6 | 240 nm/s | 0.61 to 0.64 | 0.004 µM | 0.007 µM | 0.08 µM | 1.1 | 1.3 |  | Cn1cnc2ccc(Nc3c(F)ccc(NS(=O)(=O)N4CC5CC5C4)c3Cl)c(Cl)c2c1=O (stereo not shown) [Example 17, N-(2-chloro-3-((5-chloro-3-methyl-4-oxo-3,4-dihydroquinazolin-6-yl)amino)-4-fluorophenyl)-3-azabicyclo[3.1.0]hexane-3-sulfonamide]
7 | 400 nm/s | 0.51 to 0.64 | 0.002 µM | 0.004 µM | 0.042 µM | 1.2 | 1.5 |  | Cn1cnc2ccc(Nc3c(F)ccc(NS(=O)(=O)N4CC5CC5C4)c3Cl)c(F)c2c1=O (stereo not shown) [Example 30, N-(2-chloro-4-fluoro-3-((5-fluoro-3-methyl-4-oxo-3,4-dihydroquinazolin-6-yl)amino)phenyl)-3-azabicyclo[3.1.0]hexane-3-sulfonamide trifluoroacetate]

Source: US12303509B2, “Compounds for the treatment of BRAF-associated diseases and disorders” (Pfizer Inc., priority 2020, dated 2025)
